Experimental findings from ChEMBL document CHEMBL3600314, “Discovery and characterization of a potent and selective EP4 receptor antagonist” (Bioorg Med Chem Lett, 2015) are described below.

In data set [1] the target is T1, Prostaglandin E2 receptor EP4 subtype (Homo sapiens, UniProt P35408). The data set can be described thus: Antagonist activity at EP4 receptor in LPS-stimulated human whole blood assessed as inhibition of PGE2-induced TNF-alpha reduction preincubated for 30 mins followed by PGE2 addition measured after 24 hrs by ELISA.
T1 sequence (P35408 whole entry): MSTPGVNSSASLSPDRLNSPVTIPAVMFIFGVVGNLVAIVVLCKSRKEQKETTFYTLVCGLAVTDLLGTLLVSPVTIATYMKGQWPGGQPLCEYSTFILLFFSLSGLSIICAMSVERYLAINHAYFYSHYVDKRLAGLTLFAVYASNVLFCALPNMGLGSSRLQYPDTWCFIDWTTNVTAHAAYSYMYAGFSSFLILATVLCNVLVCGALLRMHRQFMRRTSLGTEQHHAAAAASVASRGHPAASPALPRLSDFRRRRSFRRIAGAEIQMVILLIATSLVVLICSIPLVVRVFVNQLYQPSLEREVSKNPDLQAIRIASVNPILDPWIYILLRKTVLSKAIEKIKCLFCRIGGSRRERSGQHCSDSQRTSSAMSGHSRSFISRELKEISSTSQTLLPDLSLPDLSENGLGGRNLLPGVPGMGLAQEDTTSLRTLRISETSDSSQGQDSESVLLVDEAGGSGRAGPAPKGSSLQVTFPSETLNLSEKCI
For data set [2], the target named is T1, Prostaglandin E2 receptor EP4 subtype. Description: Antagonist activity at recombinant human EP4 receptor expressed in HEK293 cells assessed as inhibition of PGE2-stimulated cAMP accumulation by scintillation proximity assay in presence of [125I]-cAMP. It counts as functional, cell-based. (Cyclic AMP is a second messenger, typically raised through Gs and lowered through Gi signalling.)

The target is the same in data set [3]. The data set can be described thus: Displacement of [3H]-PGE2 from recombinant human EP4 receptor expressed in HEK293 cell membranes after 90 mins by liquid scintillation counting analysis. (In general: Loss of bound radioactivity is the signal in a displacement assay; it reports binding, not function.)
In data set [4] the target is D(1A) dopamine receptor (Homo sapiens) (UniProt P21728). The data set can be described thus: Inhibition of human dopamine D1 receptor at 10 uM relative to control.
Data set [5] has as its target Sodium-dependent noradrenaline transporter (Homo sapiens) (UniProt P23975). Description: Inhibition of human NE transporter at 10 uM relative to control.
Another data set addresses Cytochrome P450 2C8 (Homo sapiens, UniProt P10632). The data set can be described thus: Inhibition of CYP2C8 (unknown origin). It counts as ADME.
For data set [6], the target named is 5-hydroxytryptamine receptor 2B (Homo sapiens) (UniProt P41595). Description: Inhibition of human 5-HT2B receptor at 10 uM relative to control.
Another data set deals with Cytochrome P450 3A4 (Homo sapiens, UniProt P08684). The data set can be described thus: Inhibition of CYP3A4 (unknown origin). It counts as ADME.
Chain of Cytochrome P450 3A4 (P08684 whole entry): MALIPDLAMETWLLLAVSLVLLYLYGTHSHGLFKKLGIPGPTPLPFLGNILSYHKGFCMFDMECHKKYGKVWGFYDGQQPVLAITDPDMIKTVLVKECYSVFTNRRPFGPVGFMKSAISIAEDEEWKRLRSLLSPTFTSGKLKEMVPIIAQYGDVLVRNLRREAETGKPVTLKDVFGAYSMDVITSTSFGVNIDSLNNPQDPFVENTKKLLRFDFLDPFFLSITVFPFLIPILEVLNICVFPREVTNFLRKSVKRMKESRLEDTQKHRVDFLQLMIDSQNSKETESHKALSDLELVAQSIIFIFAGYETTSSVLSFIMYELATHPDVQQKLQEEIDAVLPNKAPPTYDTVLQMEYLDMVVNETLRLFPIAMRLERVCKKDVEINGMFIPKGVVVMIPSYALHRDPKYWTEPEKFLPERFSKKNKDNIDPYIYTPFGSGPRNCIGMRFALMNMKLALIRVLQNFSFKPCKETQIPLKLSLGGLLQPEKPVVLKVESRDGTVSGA
In data set [7] the target is L-type calcium channel verapamil binding site (Homo sapiens, UniProt O60840+Q01668+Q13698+Q13936). Description: Inhibition of L-type calcium channel verapamil binding site (unknown origin) at 10 uM relative to control. It counts as protein assay.
A short description of data set [8]: Clearance in Beagle dog at 10 mg/kg, po and 1 mg/kg, iv. It counts as ADME, organism-based, Canis lupus familiaris. The settings on record: in vivo.
Data set [9] has as its target Muscarinic acetylcholine receptor M3 (Homo sapiens) (UniProt P20309). The data set can be described thus: Inhibition of human muscarinic M3 receptor at 10 uM relative to control.
A further data set deals with Cytochrome P450 2B6 (Homo sapiens, UniProt P20813). Description: Inhibition of CYP2B6 (unknown origin). It counts as ADME.
Chain of Cytochrome P450 2B6 (P20813 whole entry): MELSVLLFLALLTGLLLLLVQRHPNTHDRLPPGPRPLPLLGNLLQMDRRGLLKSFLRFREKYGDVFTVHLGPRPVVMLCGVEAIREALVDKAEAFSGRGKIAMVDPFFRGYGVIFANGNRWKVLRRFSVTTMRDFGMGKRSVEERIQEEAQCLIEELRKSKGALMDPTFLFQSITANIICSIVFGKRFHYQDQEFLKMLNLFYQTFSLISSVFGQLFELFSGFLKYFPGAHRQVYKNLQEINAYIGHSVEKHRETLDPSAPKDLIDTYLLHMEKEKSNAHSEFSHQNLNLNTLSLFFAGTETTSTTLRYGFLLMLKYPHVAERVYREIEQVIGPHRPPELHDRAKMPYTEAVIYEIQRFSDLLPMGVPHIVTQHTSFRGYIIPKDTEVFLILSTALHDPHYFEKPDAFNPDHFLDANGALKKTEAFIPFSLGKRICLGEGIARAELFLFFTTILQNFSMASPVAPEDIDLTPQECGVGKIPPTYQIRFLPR
Data set [10] in a line: Solubility of the compound in FedSIF. It counts as physicochemical. Particulars: FeSSIF.
Data set [11] can be described thus: Solubility of the compound in FasSIF. It counts as physicochemical.
Data set [12] concerns the target Beta-1 adrenergic receptor (Homo sapiens) (UniProt P08588). The data set can be described thus: Inhibition of human adrenergic beta1 receptor at 10 uM relative to control.
Data set [13] addresses L-type calcium channel dihydropyridine binding site (Homo sapiens, UniProt O60840+Q01668+Q13698+Q13936). The data set can be described thus: Inhibition of L-type calcium channel dihydropyridine binding site (unknown origin) at 10 uM relative to control. It counts as protein assay.
The next data set addresses Cytochrome P450 2C9 (Homo sapiens, UniProt P11712). Description: Inhibition of CYP2C9 (unknown origin). It counts as ADME.
The target in data set [14] is Voltage-gated inwardly rectifying potassium channel KCNH2 (Homo sapiens, UniProt Q12809). Description: Displacement of [3H]-astemizole from human ERG up to 100 uM.
Data set [15] deals with T2, Prostaglandin E2 receptor EP2 subtype (Homo sapiens, UniProt P43116). Description: Agonist activity at recombinant human EP2 receptor expressed in CHO cells assessed as induction of cAMP accumulation at 1 uM after 15 mins by scintillation proximity assay in presence of [125I]-cAMP. It counts as functional, cell-based.
T2 sequence (P43116 whole entry): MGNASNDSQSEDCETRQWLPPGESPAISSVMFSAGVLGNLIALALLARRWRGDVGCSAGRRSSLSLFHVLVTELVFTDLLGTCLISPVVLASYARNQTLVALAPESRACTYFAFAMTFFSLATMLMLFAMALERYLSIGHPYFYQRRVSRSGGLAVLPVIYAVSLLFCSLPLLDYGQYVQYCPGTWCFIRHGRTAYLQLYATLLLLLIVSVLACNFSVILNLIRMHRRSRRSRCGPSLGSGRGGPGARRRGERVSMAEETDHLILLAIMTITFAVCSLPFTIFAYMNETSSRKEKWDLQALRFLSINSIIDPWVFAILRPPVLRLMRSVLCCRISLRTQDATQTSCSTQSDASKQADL
A short description of data set [16]: Solubility of the compound in SGF. It counts as physicochemical.
The target in data set [17] is T2, Prostaglandin E2 receptor EP2 subtype. Description: Displacement of [3H]-PGE2 from human EP2 receptor by liquid scintillation counting analysis.
A further data set is filed under the species Rattus norvegicus. Description: Inhibition of rat chloride channel at 10 uM relative to control.
The nature of data set [18]: Plasma concentration in Beagle dog at 10 mg/kg, po measured over 24 hrs. It counts as ADME, organism-based, Canis lupus familiaris.
Data set [19] addresses Histamine H1 receptor (Homo sapiens) (UniProt P35367). Description: Inhibition of human histamine H1 receptor at 10 uM relative to control.
Data set [20] is described as follows: Plasma concentration in Beagle dog at 10 mg/kg, po measured over 12 hrs. It counts as ADME, organism-based, Canis lupus familiaris.
The target of data set [21] is T2, Prostaglandin E2 receptor EP2 subtype. The data set can be described thus: Antagonist activity at recombinant human EP2 receptor expressed in CHO cells assessed as inhibition of PGE2-stimulated cAMP accumulation at 1 uM by scintillation proximity assay in presence of [125I]-cAMP. It counts as functional, cell-based.
The target of data set [22] is D(2) dopamine receptor (Homo sapiens) (UniProt P14416). Description: Inhibition of human dopamine D2S receptor at 10 uM relative to control.
The target in the next data set is Cytochrome P450 1A2 (Homo sapiens, UniProt P05177). The data set can be described thus: Inhibition of CYP1A2 (unknown origin). It counts as ADME.
Data set [23] can be described thus: Oral bioavailability in Beagle dog at 10 mg/kg. It counts as ADME, organism-based, Canis lupus familiaris. The settings on record: in vivo.
The target of data set [24] is Prostaglandin E2 receptor EP1 subtype (Homo sapiens, UniProt P34995). The data set can be described thus: Displacement of [3H]-PGE2 from human EP1 receptor by liquid scintillation counting analysis.
Chain of Prostaglandin E2 receptor EP1 subtype (P34995 whole entry): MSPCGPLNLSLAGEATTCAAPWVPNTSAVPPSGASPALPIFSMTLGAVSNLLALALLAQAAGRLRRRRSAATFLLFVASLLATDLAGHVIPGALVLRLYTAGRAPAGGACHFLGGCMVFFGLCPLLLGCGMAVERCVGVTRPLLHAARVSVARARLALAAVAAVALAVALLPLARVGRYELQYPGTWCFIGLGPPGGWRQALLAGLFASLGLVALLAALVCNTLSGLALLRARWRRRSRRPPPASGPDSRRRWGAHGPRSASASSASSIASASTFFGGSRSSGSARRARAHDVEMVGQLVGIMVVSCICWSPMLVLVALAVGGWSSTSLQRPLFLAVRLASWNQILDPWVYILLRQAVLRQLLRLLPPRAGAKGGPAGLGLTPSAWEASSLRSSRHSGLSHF
Data set [25] addresses Prostaglandin E synthase (Homo sapiens) (UniProt O14684). Description: Inhibition of microsomal PGES-1 (unknown origin) up to 62.5 uM.
The target of data set [26] is Adrenergic receptor alpha-2 (Rattus norvegicus) (UniProt P22086+P19328+P22909). Description: Inhibition of rat adrenergic alpha2 receptor at 10 uM relative to control.
Data set [27] has as its target Muscarinic acetylcholine receptor M2 (Homo sapiens) (UniProt P08172). Description: Inhibition of human muscarinic M2 receptor at 10 uM relative to control.
The target in data set [28] is Mu-type opioid receptor (Homo sapiens) (UniProt P35372). Description: Inhibition of human mu opioid receptor at 10 uM relative to control.
For data set [29], the target named is L-type calcium channel diltiazem binding site (Homo sapiens, UniProt O60840+Q01668+Q13698+Q13936). Description: Inhibition of L-type calcium channel diltiazem binding site (unknown origin) at 10 uM relative to control. It counts as protein assay.
The target in data set [30] is Adenosine receptor A3 (Homo sapiens) (UniProt P0DMS8). The data set can be described thus: Inhibition of human adenosine A3 receptor at 10 uM relative to control.
Chain of Adenosine receptor A3 (Homo sapiens) (P0DMS8 whole entry): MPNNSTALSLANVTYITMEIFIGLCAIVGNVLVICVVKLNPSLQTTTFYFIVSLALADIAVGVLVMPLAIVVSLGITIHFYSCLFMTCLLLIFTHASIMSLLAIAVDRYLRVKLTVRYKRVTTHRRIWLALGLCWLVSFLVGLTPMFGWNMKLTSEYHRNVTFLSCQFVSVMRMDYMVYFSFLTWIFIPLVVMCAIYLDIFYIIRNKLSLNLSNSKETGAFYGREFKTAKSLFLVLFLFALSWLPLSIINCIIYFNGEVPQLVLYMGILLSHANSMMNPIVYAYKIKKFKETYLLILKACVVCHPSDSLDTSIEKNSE
A further data set has as its target Cytochrome P450 2D6 (Homo sapiens, UniProt P10635). The data set can be described thus: Inhibition of CYP2D6 (unknown origin). It counts as ADME.
The target in the next data set is Cytochrome P450 2C19 (Homo sapiens, UniProt P33261). The data set can be described thus: Inhibition of CYP2C19 (unknown origin). It counts as ADME.
Data set [31] can be described thus: Tmax in Beagle dog at 10 mg/kg, po. It counts as ADME, organism-based, Canis lupus familiaris. Particulars: in vivo.
For data set [32], the target named is Prostaglandin E2 receptor EP3 subtype (Homo sapiens, UniProt P43115). Description: Displacement of [3H]-PGE2 from human EP3 receptor by liquid scintillation counting analysis.
Chain of Prostaglandin E2 receptor EP3 subtype (P43115 whole entry): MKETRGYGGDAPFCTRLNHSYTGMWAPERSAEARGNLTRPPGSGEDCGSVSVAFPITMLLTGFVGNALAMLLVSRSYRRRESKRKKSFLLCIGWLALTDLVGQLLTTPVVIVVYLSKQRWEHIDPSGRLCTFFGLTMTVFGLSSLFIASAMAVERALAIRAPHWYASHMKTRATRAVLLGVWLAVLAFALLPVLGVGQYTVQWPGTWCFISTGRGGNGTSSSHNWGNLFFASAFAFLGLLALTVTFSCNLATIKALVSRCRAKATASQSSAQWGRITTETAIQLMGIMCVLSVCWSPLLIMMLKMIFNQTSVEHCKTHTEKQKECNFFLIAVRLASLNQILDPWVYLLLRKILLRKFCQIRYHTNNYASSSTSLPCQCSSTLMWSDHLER
In data set [33] the target is Beta-2 adrenergic receptor (Homo sapiens) (UniProt P07550). The data set can be described thus: Inhibition of human adrenergic beta2 receptor at 10 uM relative to control.
Data set [34] has as its target Adrenergic receptor alpha-1 (Rattus norvegicus) (UniProt P15823+P23944+P43140). The data set can be described thus: Inhibition of rat adrenergic alpha1 receptor at 10 uM relative to control.

pIC50, pKi: −log10 of the molar value. The source made the active and inactive calls. No cut-off for these calls is given here. A value given as a limit tells only on which side of the number the result lay.

Chain of Histamine H1 receptor (Homo sapiens) (P35367 whole entry): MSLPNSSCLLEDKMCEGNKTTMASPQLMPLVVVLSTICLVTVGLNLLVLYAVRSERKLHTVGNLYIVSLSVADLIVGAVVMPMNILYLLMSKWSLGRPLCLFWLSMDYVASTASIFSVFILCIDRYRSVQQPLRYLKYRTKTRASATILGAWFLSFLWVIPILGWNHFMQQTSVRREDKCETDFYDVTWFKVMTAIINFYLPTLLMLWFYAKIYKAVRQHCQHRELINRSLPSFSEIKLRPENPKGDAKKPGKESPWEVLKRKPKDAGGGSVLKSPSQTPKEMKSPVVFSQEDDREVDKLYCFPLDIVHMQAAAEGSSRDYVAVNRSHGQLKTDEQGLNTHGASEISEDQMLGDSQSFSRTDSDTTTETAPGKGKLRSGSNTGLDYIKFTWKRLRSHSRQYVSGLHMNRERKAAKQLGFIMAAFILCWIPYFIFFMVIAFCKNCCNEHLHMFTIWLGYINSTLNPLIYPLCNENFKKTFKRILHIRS
Chain of Cytochrome P450 2D6 (P10635 whole entry): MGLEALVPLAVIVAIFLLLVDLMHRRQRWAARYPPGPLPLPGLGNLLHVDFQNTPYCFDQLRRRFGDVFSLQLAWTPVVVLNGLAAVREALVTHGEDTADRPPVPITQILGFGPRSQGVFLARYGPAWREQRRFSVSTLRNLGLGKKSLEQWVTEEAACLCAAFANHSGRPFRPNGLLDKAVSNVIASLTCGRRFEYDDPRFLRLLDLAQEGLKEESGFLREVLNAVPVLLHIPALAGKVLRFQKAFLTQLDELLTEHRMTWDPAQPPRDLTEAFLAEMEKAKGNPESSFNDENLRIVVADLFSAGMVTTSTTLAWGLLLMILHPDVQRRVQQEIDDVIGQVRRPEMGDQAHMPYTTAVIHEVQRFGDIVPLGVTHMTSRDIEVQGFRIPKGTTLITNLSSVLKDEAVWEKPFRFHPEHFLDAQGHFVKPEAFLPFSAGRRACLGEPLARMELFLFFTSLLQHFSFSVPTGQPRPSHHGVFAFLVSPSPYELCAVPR
Chain of Muscarinic acetylcholine receptor M2 (Homo sapiens) (P08172 whole entry): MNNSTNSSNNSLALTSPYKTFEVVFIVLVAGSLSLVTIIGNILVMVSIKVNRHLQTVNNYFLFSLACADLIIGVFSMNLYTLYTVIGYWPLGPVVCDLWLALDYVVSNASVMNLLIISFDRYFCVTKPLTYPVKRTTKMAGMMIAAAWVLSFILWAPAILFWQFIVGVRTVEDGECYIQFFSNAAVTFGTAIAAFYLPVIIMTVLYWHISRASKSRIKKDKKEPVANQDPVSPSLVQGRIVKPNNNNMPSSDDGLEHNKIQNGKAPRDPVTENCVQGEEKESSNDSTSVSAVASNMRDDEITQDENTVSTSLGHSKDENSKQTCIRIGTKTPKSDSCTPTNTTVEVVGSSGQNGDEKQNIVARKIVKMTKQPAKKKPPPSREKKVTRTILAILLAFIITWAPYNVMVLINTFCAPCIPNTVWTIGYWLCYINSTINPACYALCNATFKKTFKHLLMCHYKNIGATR
Chain of Cytochrome P450 2C8 (P10632 whole entry): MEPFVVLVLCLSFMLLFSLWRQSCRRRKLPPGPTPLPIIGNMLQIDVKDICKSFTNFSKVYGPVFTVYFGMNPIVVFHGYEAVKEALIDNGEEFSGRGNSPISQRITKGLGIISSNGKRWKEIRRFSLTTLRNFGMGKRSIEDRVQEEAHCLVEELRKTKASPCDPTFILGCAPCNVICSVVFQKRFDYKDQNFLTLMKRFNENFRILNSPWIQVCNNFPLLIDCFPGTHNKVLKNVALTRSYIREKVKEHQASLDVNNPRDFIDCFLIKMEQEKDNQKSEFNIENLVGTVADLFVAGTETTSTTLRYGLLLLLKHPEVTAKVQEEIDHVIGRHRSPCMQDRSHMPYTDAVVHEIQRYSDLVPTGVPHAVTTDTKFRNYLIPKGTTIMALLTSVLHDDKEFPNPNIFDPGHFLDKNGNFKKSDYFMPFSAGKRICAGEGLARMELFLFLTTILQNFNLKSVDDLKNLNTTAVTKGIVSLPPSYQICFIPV

For the compound `CC[C@H](NC(=O)[C@H]1CCCCN1CCOc1ccccc1)c1ccc(C(=O)O)cc1`, the results for the pIC50 in data set [1], in [2] and in [3] were 6.54, 7.84 and 6.63, respectively. Further, the pKi in data set [3] was 6.89.
Take `O=C(O)c1ccc(CNC(=O)[C@H]2CCCCN2CCOc2ccccc2)cc1`: the pIC50 in data set [1] was 6.05; in data set [2], 7.74; in [3], 6.69. For the same compound, the pKi in data set [3] was 6.90.
With `CCc1nc2c(C)nc(C)cc2n1-c1ccc(CCNC(=O)NS(=O)(=O)c2ccc(C)cc2)cc1` [GRAPIPRANT], the pIC50 in [1] was 5.79; in data set [3], 6.16.
Regarding `C[C@H](NC(=O)[C@H]1CCCCN1CCOc1ccc(F)cc1)c1ccc(C(=O)O)cc1`, the pIC50 in [1] is 6.92; in data set [2], 8.54; in data set [3], 7.14. Also, in data set [3], the pKi was 7.39.
For `C[C@H](NC(=O)[C@H]1CCCCN1CCOc1ccc(C#N)cc1)c1ccc(C(=O)O)cc1` the same measures were 5.92, 7.45, 6.21 and 6.43.
`O=C(O)c1ccc(C2(NC(=O)[C@H]3CCCCN3CCOc3ccccc3)CC2)cc1`: the pIC50 in [1] is 6.23; in data set [2], 8.27; in data set [3], 7.11. The pKi in [3] is 7.35.
In the case of `C[C@H](NC(=O)[C@H]1CCCCN1CCOc1ccccc1)c1ccc(C(=O)O)cc1.Cl`, the inhibition in data set [4] is -6%; in [5] it was 7%; in data set [6], 10%; in data set [9] it was 7%; in data set [12], 6%; in the data set listed under Rattus norvegicus it was 6%. For the same compound, the inhibition was 7% in data set [19]; 13% in data set [22]; -6% in data set [26]; -1% in data set [27]; 1% in [28]; -9% in data set [30]. Moreover, the inhibition amounted to 2% in data set [33] and 1% in [34]. For the same compound, the pIC50 against Cytochrome P450 2C8 was less than 5.00; against Cytochrome P450 3A4, less than 5.00; on Cytochrome P450 2B6 it was less than 5.00; at Cytochrome P450 2C9, less than 5.00; in [17], 5.79; against Cytochrome P450 1A2, less than 5.00. Moreover, the pIC50 is less than 4.60 in [24], less than 5.00 on Cytochrome P450 2D6, less than 5.00 on Cytochrome P450 2C19 and less than 4.60 in data set [32]. For the same compound, the figures for the inhibition at 10 µM in data set [7], in data set [13] and in [29] were 5%, -60% and -7%, respectively. The compound also had a clearance in data set [8] of 5.2 mL/min/kg. The solubility in data set [10] was more than 2000 µg/mL; in [11], more than 2000 µg/mL; in data set [16], 1320 µg/mL. The “inhibition (INH)” value in [14] was “Not Active”. Further, the outcome in data set [15] was Active. In [18], this compound returned a concentration at 24 h of more than 100 nM. The compound also had a concentration at 12 h in data set [20] of more than 1000 nM. In data set [21], the inhibition entry is “Active”. The same compound had a bioavailability in [23] of 81%. In addition, the pKi in data set [24] was less than 4.76; in data set [32], less than 4.90. Besides, the inhibition result in [25] is “inactive”. The Tmax in [31] is 15 min.

The pIC50 is the IC50 on a negative log10 scale, so that one unit is a factor of ten. What is called pKi is −log10 of the Ki, conventionally taken in molar units. A word on the inhibition: it is the drop in the measured response relative to a control, in per cent. In general, solubility refers to the dissolved amount per volume that the medium holds. Read a low solubility as little dissolved substance. As usually defined, the bioavailability is dose-corrected exposure relative to a reference, in per cent. A lower bioavailability goes with little systemic uptake. For orientation: Tmax means the time from dosing to the highest level.
